{"source": "paper PMC5218480", "about": "(PLoS ONE, 2017)", "tested_on": "MV-4-11 cells", "test": "Gene expression microarray analysis (Affymetrix PrimeView) and GSEA", "assay_type": "cell-based, human", "set-up": "RFU PODN (11730768_x_at) / Fold change /veh PODN (11730768_x_at) / RFU LINC00158 (11744669_a_at) / Fold change /veh LINC00158 (11744669_a_at) / RFU DUSP10 (11751237_a_at) / Fold change /veh DUSP10 (11751237_a_at) / RFU ID3 (11757404_x_at) / Fold change /veh ID3 (11757404_x_at) / RFU PLEKHG5 (11737974_s_at) / Fold change /veh PLEKHG5 (11737974_s_at) / RFU LRRC4B (11730491_at) / Fold change /veh LRRC4B (11730491_at) / RFU GIMAP4 (11747438_a_at) / Fold change /veh GIMAP4 (11747438_a_at) / RFU KRT8 (11758183_x_at) / Fold change /veh KRT8 (11758183_x_at) / RFU CNN1 (11734310_a_at) / Fold change /veh CNN1 (11734310_a_at) / RFU VPS37D (11726825_at) / Fold change /veh VPS37D (11726825_at) / RFU C10orf10 (11716522_x_at) / Fold change /veh C10orf10 (11716522_x_at) / RFU KIR2DL2 /// KIR2DL4 /// KIR2DL5A /// KIR2DL5B /// KIR2DS1 /// KIR2DS2 /// KIR2DS3 /// KIR2DS4 /// KIR3DL3 /// KIR3DL3 /// KIR3DS1 (11738374_at) / Fold change /veh KIR2DL2 /// KIR2DL4 /// KIR2DL5A /// KIR2DL5B /// KIR2DS1 /// KIR2DS2 /// KIR2DS3 /// KIR2DS4 /// KIR3DL3 /// KIR3DL3 /// KIR3DS1 (11738374_at) / RFU C1QL1 (11718748_at) / Fold change /veh C1QL1 (11718748_at) / RFU TMPRSS4 (11747572_a_at) / Fold change /veh TMPRSS4 (11747572_a_at) / RFU HAMP (11756126_x_at) / Fold change /veh HAMP (11756126_x_at) / RFU RNFT2 (11725882_a_at) / Fold change /veh RNFT2 (11725882_a_at) / RFU NR4A2 (11747474_a_at) / Fold change /veh NR4A2 (11747474_a_at) / RFU ABCC12 (11746883_a_at) / Fold change /veh ABCC12 (11746883_a_at) / RFU TMEM136 (11760407_x_at) / Fold change /veh TMEM136 (11760407_x_at) / RFU CLDN22 /// WWC2 (11732394_at) / Fold change /veh CLDN22 /// WWC2 (11732394_at) / RFU HLA-DPB1 (11760878_x_at) / Fold change /veh HLA-DPB1 (11760878_x_at) / RFU SPINT1 (11716480_a_at) / Fold change /veh SPINT1 (11716480_a_at) / RFU GAP43 (11754022_s_at) / Fold change /veh GAP43 (11754022_s_at) / RFU A4GNT (11735810_at) / Fold change /veh A4GNT (11735810_at) / RFU PRB3 (11715151_x_at) / Fold change /veh PRB3 (11715151_x_at) / RFU TUBB4B (11761932_at) / Fold change /veh TUBB4B (11761932_at) / RFU CAPN14 (11732068_a_at) / Fold change /veh CAPN14 (11732068_a_at) / RFU TMCC2 (11721928_a_at) / Fold change /veh TMCC2 (11721928_a_at) / RFU IRGQ (11745062_a_at) / Fold change /veh IRGQ (11745062_a_at) / RFU FAM174B (11720279_a_at) / Fold change /veh FAM174B (11720279_a_at) / RFU TMPRSS4 (11748680_a_at) / Fold change /veh TMPRSS4 (11748680_a_at) / RFU FAM212B (11763350_a_at) / Fold change /veh FAM212B (11763350_a_at) / RFU PLEKHG5 (11743358_a_at) / Fold change /veh PLEKHG5 (11743358_a_at) / RFU ZSCAN30 (11745921_a_at) / Fold change /veh ZSCAN30 (11745921_a_at) / RFU CMKLR1 (11741424_a_at) / Fold change /veh CMKLR1 (11741424_a_at) / RFU LOC101060620 /// MAPK8IP1 (11723275_at) / Fold change /veh LOC101060620 /// MAPK8IP1 (11723275_at) / RFU SPTSSB (11747773_x_at) / Fold change /veh SPTSSB (11747773_x_at) / RFU PRSS12 (11739890_at) / Fold change /veh PRSS12 (11739890_at) / RFU BIN1 (11741810_x_at) / Fold change /veh BIN1 (11741810_x_at) / RFU WNT11 (11732464_a_at) / Fold change /veh WNT11 (11732464_a_at) / RFU C10orf10 (11716521_a_at) / Fold change /veh C10orf10 (11716521_a_at) / RFU C5orf56 (11738089_at) / Fold change /veh C5orf56 (11738089_at) / RFU CYB561 (11721691_x_at) / Fold change /veh CYB561 (11721691_x_at) / RFU ANKRD19P (11752326_a_at) / Fold change /veh ANKRD19P (11752326_a_at) / RFU OR2T12 /// OR2T33 /// OR2T8 (11738714_s_at) / Fold change /veh OR2T12 /// OR2T33 /// OR2T8 (11738714_s_at) / RFU VCAN (11748164_a_at) / Fold change /veh VCAN (11748164_a_at) / RFU JSRP1 (11732532_at) / Fold change /veh JSRP1 (11732532_at) / RFU KRTAP10-11 (11738290_x_at) / Fold change /veh KRTAP10-11 (11738290_x_at) / RFU MYO3A (11730013_a_at) / Fold change /veh MYO3A (11730013_a_at) / RFU EBF3 (11725865_a_at) / Fold change /veh EBF3 (11725865_a_at) / RFU CAMK2N1 (11719241_x_at) / Fold change /veh CAMK2N1 (11719241_x_at) / RFU C5orf56 (11738088_a_at) / Fold change /veh C5orf56 (11738088_a_at) / RFU OLFML3 (11715873_a_at) / Fold change /veh OLFML3 (11715873_a_at) / RFU LOC100653217 /// NTM (11731650_a_at) / Fold change /veh LOC100653217 /// NTM (11731650_a_at) / RFU MAPK11 (11762145_a_at) / Fold change /veh MAPK11 (11762145_a_at) / RFU FIZ1 (11724087_x_at) / Fold change /veh FIZ1 (11724087_x_at) / RFU OASL (11726364_x_at) / Fold change /veh OASL (11726364_x_at) / RFU SOX15 (11748057_x_at) / Fold change /veh SOX15 (11748057_x_at) / RFU CD79A (11719716_a_at) / Fold change /veh CD79A (11719716_a_at) / RFU HIST1H1D (11736915_at) / Fold change /veh HIST1H1D (11736915_at) / RFU CASKIN2 (11723855_a_at) / Fold change /veh CASKIN2 (11723855_a_at) / RFU LOC730098 (11760151_x_at) / Fold change /veh LOC730098 (11760151_x_at) / RFU OR4N2 (11742367_at) / Fold change /veh OR4N2 (11742367_at) / RFU PRRT2 (11749266_a_at) / Fold change /veh PRRT2 (11749266_a_at) / RFU SNX32 (11753110_a_at) / Fold change /veh SNX32 (11753110_a_at) / RFU CDHR5 (11726645_a_at) / Fold change /veh CDHR5 (11726645_a_at) / RFU RCAN1 (11760418_a_at) / Fold change /veh RCAN1 (11760418_a_at) / RFU FAM167A (11723789_a_at) / Fold change /veh FAM167A (11723789_a_at) / RFU FAM26E (11764081_at) / Fold change /veh FAM26E (11764081_at) / RFU ISYNA1 (11749810_s_at) / Fold change /veh ISYNA1 (11749810_s_at) / RFU ACY1 (11761880_at) / Fold change /veh ACY1 (11761880_at) / RFU 11764098_at / Fold change /veh 11764098_at / RFU SAMD14 (11745864_x_at) / Fold change /veh SAMD14 (11745864_x_at) / RFU NPB (11741838_a_at) / Fold change /veh NPB (11741838_a_at) / RFU TMPRSS6 (11731388_a_at) / Fold change /veh TMPRSS6 (11731388_a_at) / RFU KRTAP10-2 (11738614_at) / Fold change /veh KRTAP10-2 (11738614_at) / RFU ARHGAP8 /// PRR5-ARHGAP8 (11727945_x_at) / Fold change /veh ARHGAP8 /// PRR5-ARHGAP8 (11727945_x_at) / RFU KRTAP5-7 /// NADSYN1 (11734609_at) / Fold change /veh KRTAP5-7 /// NADSYN1 (11734609_at) / RFU RASL12 (11751679_a_at) / Fold change /veh RASL12 (11751679_a_at) / RFU CDKN2B (11736163_a_at) / Fold change /veh CDKN2B (11736163_a_at) / RFU PRF1 (11729649_at) / Fold change /veh PRF1 (11729649_at) / RFU, ZNF638 /// ZNF638-IT1 / Fold change vs veh, ZNF638 /// ZNF638-IT1 / RFU, PANK3 / Fold change vs veh, PANK3 / RFU, SH3YL1 / Fold change vs veh, SH3YL1 / RFU, ZEB2 / Fold change vs veh, ZEB2 / RFU, NRIP1 / Fold change vs veh, NRIP1 / RFU, PTTG1IP / Fold change vs veh, PTTG1IP / RFU, CAPN2 / Fold change vs veh, CAPN2 / RFU, MED14 / Fold change vs veh, MED14 / RFU, SNORA58 / Fold change vs veh, SNORA58 / RFU, C1orf63 / Fold change vs veh, C1orf63 / RFU, LRRFIP1 / Fold change vs veh, LRRFIP1 / RFU, NDUFAF7 / Fold change vs veh, NDUFAF7 / RFU, SLC12A2 / Fold change vs veh, SLC12A2 / RFU, IBTK / Fold change vs veh, IBTK / RFU, ESF1 / Fold change vs veh, ESF1 / Fold change vs veh, TMEM50B / RFU, TAOK1 / Fold change vs veh, TAOK1 / RFU, ACBD3 / Fold change vs veh, ACBD3 / RFU, TMA16 / Fold change vs veh, TMA16 / RFU, RWDD3 / Fold change vs veh, RWDD3 / RFU, BCAT1 / Fold change vs veh, BCAT1 / RFU, EDEM3 / Fold change vs veh, EDEM3 / RFU, TMEM33 / Fold change vs veh, TMEM33 / RFU, WDR75 / Fold change vs veh, WDR75 / RFU, AHCTF1 / Fold change vs veh, AHCTF1 / RFU, TFRC / Fold change vs veh, TFRC / RFU, ZDHHC17 / Fold change vs veh, ZDHHC17 / RFU, NOM1 / Fold change vs veh, NOM1 / RFU, ARL8B / Fold change vs veh, ARL8B / RFU, ZBTB11 / Fold change vs veh, ZBTB11 / RFU, TAMM41 / Fold change vs veh, TAMM41 / RFU, KIAA1704 /// LOC100996395 / Fold change vs veh, KIAA1704 /// LOC100996395 / RFU, ING1 / Fold change vs veh, ING1 / RFU, TRMT61B / Fold change vs veh, TRMT61B / RFU, FUBP3 / Fold change vs veh, FUBP3 / RFU, TP53 / Fold change vs veh, TP53 / RFU, TNKS2 / Fold change vs veh, TNKS2 / RFU, ZFP14 / Fold change vs veh, ZFP14 / RFU, ACTR2 / Fold change vs veh, ACTR2 / RFU, PPP3R1 / Fold change vs veh, PPP3R1 / RFU, PIK3R1 / Fold change vs veh, PIK3R1 / RFU, HNRNPA1 / Fold change vs veh, HNRNPA1 / RFU, RNF170 / Fold change vs veh, RNF170 / RFU, ZNF28 / Fold change vs veh, ZNF28 / RFU, RNGTT / Fold change vs veh, RNGTT / RFU, OGT / Fold change vs veh, OGT / RFU, BRD1 / Fold change vs veh, BRD1 / RFU, MARS / Fold change vs veh, MARS / RFU, ZNF655 / Fold change vs veh, ZNF655 / RFU, FAHD1 / Fold change vs veh, FAHD1 / RFU, BDP1 / Fold change vs veh, BDP1 / RFU, LRRCC1 / Fold change vs veh, LRRCC1 / RFU, ARID1A / Fold change vs veh, ARID1A / RFU, ZNF146 / Fold change vs veh, ZNF146 / RFU, ZNF330 / Fold change vs veh, ZNF330 / RFU, GPN3 / Fold change vs veh, GPN3 / RFU, C9orf123 / Fold change vs veh, C9orf123 / RFU, N4BP2L2 / Fold change vs veh, N4BP2L2 / RFU, ARFIP1 / Fold change vs veh, ARFIP1 / RFU, FAM179B / Fold change vs veh, FAM179B / RFU, BCL10 / Fold change vs veh, BCL10 / RFU, UHRF1BP1L / Fold change vs veh, UHRF1BP1L / RFU, BET1 / Fold change vs veh, BET1 / RFU, CNOT2 / Fold change vs veh, CNOT2 / RFU, ZNF268 / Fold change vs veh, ZNF268 / Fold change vs veh, ZNF507 / RFU, DGCR2 / Fold change vs veh, DGCR2 / RFU, WDSUB1 / Fold change vs veh, WDSUB1 / Fold change vs veh, HSP90B1 /// MIR3652 / RFU, ADSS / Fold change vs veh, ADSS / RFU, GK / Fold change vs veh, GK / RFU, ZNF148 / Fold change vs veh, ZNF148 / RFU, TAF9 / Fold change vs veh, TAF9 / RFU, SLC1A5 / Fold change vs veh, SLC1A5 / RFU, SLMO2 / Fold change vs veh, SLMO2 / RFU, ABCC4 / Fold change vs veh, ABCC4 / RFU, LOC101060439 /// RAP1B / Fold change vs veh, LOC101060439 /// RAP1B / RFU, RFX7 / Fold change vs veh, RFX7 / RFU, GTPBP10 / Fold change vs veh, GTPBP10 / RFU, CNEP1R1 / Fold change vs veh, CNEP1R1 / RFU, BIVM-ERCC5 /// ERCC5 / Fold change vs veh, BIVM-ERCC5 /// ERCC5 / RFU, ILF3 / Fold change vs veh, ILF3 / RFU 11762660_at / Fold change /veh 11762660_at / RFU VCAN (11757783_s_at) / Fold change /veh VCAN (11757783_s_at) / RFU DDX43 (11728927_at) / Fold change /veh DDX43 (11728927_at) / RFU KRT8 (11758188_x_at) / Fold change /veh KRT8 (11758188_x_at) / RFU NKD1 (11759106_at) / Fold change /veh NKD1 (11759106_at) / RFU SRD5A1 (11742802_a_at) / Fold change /veh SRD5A1 (11742802_a_at) / RFU TPSAB1 /// TPSB2 (11721975_s_at) / Fold change /veh TPSAB1 /// TPSB2 (11721975_s_at) / RFU GSTM3 (11746129_a_at) / Fold change /veh GSTM3 (11746129_a_at) / RFU IL23R (11737362_x_at) / Fold change /veh IL23R (11737362_x_at) / RFU TMEM51 (11727254_a_at) / Fold change /veh TMEM51 (11727254_a_at) / RFU PIWIL2 (11732686_x_at) / Fold change /veh PIWIL2 (11732686_x_at) / RFU ORM1 (11744905_x_at) / Fold change /veh ORM1 (11744905_x_at) / RFU CCDC152 (11743942_at) / Fold change /veh CCDC152 (11743942_at) / RFU ECM1 (11717891_a_at) / Fold change /veh ECM1 (11717891_a_at) / RFU IL23R (11748794_a_at) / Fold change /veh IL23R (11748794_a_at) / RFU TNFAIP8L3 (11732012_x_at) / Fold change /veh TNFAIP8L3 (11732012_x_at) / RFU MBOAT4 (11741988_at) / Fold change /veh MBOAT4 (11741988_at) / RFU 11764193_at / Fold change /veh 11764193_at / RFU TMEM53 (11763286_at) / Fold change /veh TMEM53 (11763286_at) / RFU MAGEB2 (11727129_at) / Fold change /veh MAGEB2 (11727129_at) / RFU TMEM200A (11744735_a_at) / Fold change /veh TMEM200A (11744735_a_at) / RFU CCDC152 (11751479_a_at) / Fold change /veh CCDC152 (11751479_a_at) / RFU FAM211A (11726209_a_at) / Fold change /veh FAM211A (11726209_a_at) / RFU RGS16 (11746705_a_at) / Fold change /veh RGS16 (11746705_a_at) / RFU VCAN (11755009_s_at) / Fold change /veh VCAN (11755009_s_at) / RFU RHOB (11743442_s_at) / Fold change /veh RHOB (11743442_s_at) / RFU RGS16 (11720943_a_at) / Fold change /veh RGS16 (11720943_a_at) / RFU RGS16 (11720944_at) / Fold change /veh RGS16 (11720944_at) / RFU, VPS4B / Fold change vs veh, VPS4B / RFU, CREB1 / Fold change vs veh, CREB1 / RFU, DNAJC13 / Fold change vs veh, DNAJC13 / RFU, GNAQ / Fold change vs veh, GNAQ / RFU, CDK5R1 / Fold change vs veh, CDK5R1 / RFU, ZRANB3 / Fold change vs veh, ZRANB3 / RFU, CUL4A / Fold change vs veh, CUL4A / RFU, CCNY / Fold change vs veh, CCNY / RFU, UFL1 / Fold change vs veh, UFL1 / RFU, COG3 / Fold change vs veh, COG3 / RFU, DIAPH2 / Fold change vs veh, DIAPH2 / RFU, SKA2 / Fold change vs veh, SKA2 / RFU, AFF3 / Fold change vs veh, AFF3 / RFU, LMF1 / Fold change vs veh, LMF1 / RFU, IPO11 / Fold change vs veh, IPO11 / RFU, DFFB / Fold change vs veh, DFFB / RFU, FOXP1 / Fold change vs veh, FOXP1 / RFU, CARD8 / Fold change vs veh, CARD8 / RFU, STRN3 / Fold change vs veh, STRN3 / RFU, ADK / Fold change vs veh, ADK / RFU, RASSF2 / Fold change vs veh, RASSF2 / RFU, WIPF1 / Fold change vs veh, WIPF1 / RFU, LARP1B / Fold change vs veh, LARP1B / RFU, RASA1 / Fold change vs veh, RASA1 / RFU, RB1 / Fold change vs veh, RB1 / RFU, PPFIA1 / Fold change vs veh, PPFIA1 / RFU, MAT2A / Fold change vs veh, MAT2A / RFU, CCT5 / Fold change vs veh, CCT5 / RFU, WDR92 / Fold change vs veh, WDR92 / RFU, CUX1 / Fold change vs veh, CUX1 / RFU, TTC7A / Fold change vs veh, TTC7A / RFU, TMEM135 / Fold change vs veh, TMEM135 / RFU, DEPTOR / Fold change vs veh, DEPTOR / RFU, CPM / Fold change vs veh, CPM / RFU, DNAJB6 / Fold change vs veh, DNAJB6 / RFU, CACNA2D3 / Fold change vs veh, CACNA2D3 / RFU, DTX4 / Fold change vs veh, DTX4 / RFU, TFCP2 / Fold change vs veh, TFCP2 / RFU, GMCL1 /// GMCL1P1 / Fold change vs veh, GMCL1 /// GMCL1P1 / RFU, AEBP2 / Fold change vs veh, AEBP2 / RFU, SNHG1 /// SNORD22 /// SNORD25 /// SNORD26 /// SNORD27 /// SNORD28 /// SNORD29 /// SNORD31 / Fold change vs veh, SNHG1 /// SNORD22 /// SNORD25 /// SNORD26 /// SNORD27 /// SNORD28 /// SNORD29 /// SNORD31 / Fold change (Aza/veh), C12orf56 (ProbeSet 11735607_a_at) / Fold change (ACY-1035/veh), C12orf56 (ProbeSet 11735607_a_at) / Fold change (Aza/veh), FGFR1OP (ProbeSet 11751329_s_at) / Fold change (ACY-1035/veh), FGFR1OP (ProbeSet 11751329_s_at) / Fold change (Aza/veh), VPS36 (ProbeSet 11739960_a_at) / Fold change (ACY-1035/veh), VPS36 (ProbeSet 11739960_a_at) / RFU SYPL1 (11715823_x_at) / Fold change /veh SYPL1 (11715823_x_at) / RFU IGFBP7 (11715501_s_at) / Fold change /veh IGFBP7 (11715501_s_at) / RFU REEP3 (11722064_at) / Fold change /veh REEP3 (11722064_at) / RFU IGLL1 (11728026_x_at) / Fold change /veh IGLL1 (11728026_x_at): dose or concentration left out as unconfirmed", "conditions": "ProbeSet 11733831_s_at; LIST D", "data": [{"smiles": "Nc1ccc(-c2cccs2)cc1NC(=O)c1ccc2c(c1)cc(C1CC1)n2CCN1CCOCC1", "note": "[ACY-1035]", "values": [{"measurement": "RFU, GMCL1 /// GMCL1P1", "value": 34.22, "unit": "RFU"}]}]}
